From article PMC7495458, “Generating Ampicillin-Level Antimicrobial Peptides with Activity-Aware Generative Adversarial Networks” (ACS Omega, 2020) come the findings set out here.

The subject of this assay is E. coli TOP10. Put plainly: microbe, parasite or virus in culture. Type of assay: cell-based. As to the method:
The potency of the peptides is evaluated based on MIC against E. coli. MIC is determined as the minimum concentration of an antimicrobial at which the growth of a target microbe is suppressed. […] The high production ratio, 5/6, and the sufficiently low MIC of AMP4 validate PepGAN’s ability to generate industry-level peptides.
The MICs of the peptides were determined using the microdilution test with some modifications. We used E. coli TOP10 (Thermo Scientific, MA, USA) in the late-log phase for this test. The colony forming unit (cfu) of E. coli was determined using optical density at 600 nm. For each peptide, we prepared 11 wells containing 150 μL of 5 × 10^5 cfu/mL of E. coli and the series of concentration of each peptide from 10 to 0.01 μg/mL (2-fold dilution for 10 times). We also prepared one well containing only 150 μL of 5 × 10^5 cfu/mL of E. coli without the peptide. Similarly, we prepared 11 wells for ampicillin in the same well-plate. We incubate the plates for 26 h at 37 °C for the growth of E. coli. To read the optical density for each well, we set the plates in a plate reader (EnSpire 2300, PerkinElmer). After shaking the plate for 10 s at 300 rpm in double-orbital motion (diameter 1 mm), we measured the optical density of each solution (600 nm).

In brackets after ≈: the same amount, converted by molar mass. Like-named read-outs stand apart in the source and are kept apart here. No end group written: not given here.

In the case of `CC1(C)S[C@@H]2[C@H](NC(=O)[C@H](N)c3ccccc3)C(=O)N2[C@H]1C(=O)O` [ampicillin], the MIC (Escherichia coli, microdilution test, E. coli TOP10 late-log phase, 5 × 10^5 cfu/mL, 150 μL, 2-fold dilutions, 26 h at 37 °C, optical density 600 nm, read-out: MIC) amounted to 6.25 µg/mL (≈ 17.9 µM).

On to EIEYGNPGVGTDR-NH2 [AMP9NC], for which the MIC (TOP10, 26 h) is above 100 µg/mL.

Regarding FLGPIIKTVRAVLCAIKKL-NH2 [AMP6], the MIC (TOP10, 26 h) came to 25 µg/mL.

The compound FLPAFKNVISKILKALKKKV-NH2 [AMP5] displayed an MIC (TOP10, 26 h) of 12.5 µg/mL.

GLKKLFSKIKIIGSALKNLA-NH2 [AMP4] gave an MIC (TOP10, 26 h) of 3.1 µg/mL.

For the compound GLRSSVKTLLRGLLGIIKKF-NH2 [AMP3], the MIC (TOP10, 26 h) is above 100 µg/mL.

Take IKALLALPKLAKKIAKKFLK-NH2 [AMP2]: the MIC (TOP10, 26 h) is 50 µg/mL.

As to ILPLLKKFGKKFGKKVWKAL-NH2 [AMP1], the MIC (TOP10, 26 h) is 25 µg/mL.

KRFLPSCVRSIQNLDDALPTPEEF-NH2 [AMP8NC]: the MIC (TOP10, 26 h) is above 100 µg/mL.

Turning to LFTMADPIQSIEKEI-NH2 [AMP7NC], where the note is “TOP10, 26 h”, the MIC was above 100 µg/mL.

Regarding TLPEWDDRRVVNS-NH2 [AMP10NC], the MIC (TOP10, 26 h) is above 100 µg/mL.
